For one test, the target named is Cholinesterase (Homo sapiens, UniProt P06276). The experiment in a line: Inhibition of butyrylcholinesterase (unknown origin) using butyrylthiocholine chloride as substrate incubated for 10 mins followed by substrate addition measured after 20 mins by UV-Vis spectrophotometric analysis.
The target of another test is Acetylcholinesterase (Homo sapiens, UniProt P22303). Kind of test: Inhibition of acetylcholinesterase (unknown origin) using acetylthiocholine iodide as substrate incubated for 10 mins followed by substrate addition measured after 20 mins by UV-Vis spectrophotometric analysis.
Sequence of Acetylcholinesterase (P22303 whole entry): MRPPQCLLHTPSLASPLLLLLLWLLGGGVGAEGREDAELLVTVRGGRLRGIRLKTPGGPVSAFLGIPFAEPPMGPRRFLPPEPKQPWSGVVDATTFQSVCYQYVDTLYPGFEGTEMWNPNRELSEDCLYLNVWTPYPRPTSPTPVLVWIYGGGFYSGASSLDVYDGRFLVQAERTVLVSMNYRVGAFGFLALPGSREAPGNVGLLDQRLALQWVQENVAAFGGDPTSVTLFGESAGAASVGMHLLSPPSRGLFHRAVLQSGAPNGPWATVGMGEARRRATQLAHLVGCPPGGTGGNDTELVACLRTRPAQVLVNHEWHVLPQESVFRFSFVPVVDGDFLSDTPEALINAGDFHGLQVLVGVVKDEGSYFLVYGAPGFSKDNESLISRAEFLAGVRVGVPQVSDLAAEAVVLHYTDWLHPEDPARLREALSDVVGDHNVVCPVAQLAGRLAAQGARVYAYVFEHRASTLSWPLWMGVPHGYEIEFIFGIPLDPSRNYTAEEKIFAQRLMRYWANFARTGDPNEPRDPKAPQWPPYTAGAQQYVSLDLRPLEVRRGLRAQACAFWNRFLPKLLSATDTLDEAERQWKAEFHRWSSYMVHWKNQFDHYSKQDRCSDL

By IC50 is commonly meant the point on the concentration scale where inhibition reaches its midpoint. A high value points to lower potency.

Sequence of Cholinesterase (P06276 whole entry): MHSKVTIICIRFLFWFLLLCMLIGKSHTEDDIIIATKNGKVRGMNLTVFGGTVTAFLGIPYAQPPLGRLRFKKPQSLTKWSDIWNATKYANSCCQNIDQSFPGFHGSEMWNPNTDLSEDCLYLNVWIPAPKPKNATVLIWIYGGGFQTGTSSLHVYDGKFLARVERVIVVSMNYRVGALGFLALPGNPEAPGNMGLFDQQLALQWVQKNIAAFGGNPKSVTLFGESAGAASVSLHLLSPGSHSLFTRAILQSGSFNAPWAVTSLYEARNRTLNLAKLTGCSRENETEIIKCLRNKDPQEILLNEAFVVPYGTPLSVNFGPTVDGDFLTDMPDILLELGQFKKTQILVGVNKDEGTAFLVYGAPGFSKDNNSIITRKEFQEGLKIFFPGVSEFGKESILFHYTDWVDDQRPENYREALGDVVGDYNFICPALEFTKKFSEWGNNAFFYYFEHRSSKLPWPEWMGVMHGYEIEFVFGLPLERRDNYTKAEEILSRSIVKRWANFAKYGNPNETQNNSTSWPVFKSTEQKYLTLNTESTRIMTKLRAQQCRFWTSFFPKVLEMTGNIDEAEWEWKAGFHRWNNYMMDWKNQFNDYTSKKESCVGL

Turning to `CC(C)Cc1ccc(/C=C2\Oc3ccccc3C2=O)cc1`, the IC50 was 1020 nM at Cholinesterase and 980 nM on Acetylcholinesterase. The molecule `S=C1/C(=C/c2ccccc2)Oc2ccccc21` had an IC50 against Acetylcholinesterase of 6390 nM. As for `Fc1ccc(/C=C2\Oc3ccccc3C2=S)cc1`, at Cholinesterase, it took 5270 nM to reach half-maximal inhibition (IC50). On Acetylcholinesterase, `COc1ccc(/C=C2\Oc3ccccc3C2=O)cc1` [4'-METHOXY-AURONE] came in with an IC50 of 1260 nM.

The values above are taken from ChEMBL document CHEMBL3868598, “Synthesis, structure-activity relationship and molecular docking of 3-oxoaurones and 3-thioaurones as acetylcholinesterase and butyrylcholinesterase inhibitors” (Bioorg Med Chem, 2017).
